The results in this text go back to US20120071469A1 (priority 2009, published 2012).

The target of this assay is α7-subtype of nicotinic receptors (Rattus norvegicus, UniProt Q05941). Description: biochemical. Format: binding.

pIC50: −log10 of the molar value. Structures can show the parent of a compound that is named as a salt. Some results are limits rather than exact numbers.

Sequence of α7-subtype of nicotinic receptors (Q05941 23-502): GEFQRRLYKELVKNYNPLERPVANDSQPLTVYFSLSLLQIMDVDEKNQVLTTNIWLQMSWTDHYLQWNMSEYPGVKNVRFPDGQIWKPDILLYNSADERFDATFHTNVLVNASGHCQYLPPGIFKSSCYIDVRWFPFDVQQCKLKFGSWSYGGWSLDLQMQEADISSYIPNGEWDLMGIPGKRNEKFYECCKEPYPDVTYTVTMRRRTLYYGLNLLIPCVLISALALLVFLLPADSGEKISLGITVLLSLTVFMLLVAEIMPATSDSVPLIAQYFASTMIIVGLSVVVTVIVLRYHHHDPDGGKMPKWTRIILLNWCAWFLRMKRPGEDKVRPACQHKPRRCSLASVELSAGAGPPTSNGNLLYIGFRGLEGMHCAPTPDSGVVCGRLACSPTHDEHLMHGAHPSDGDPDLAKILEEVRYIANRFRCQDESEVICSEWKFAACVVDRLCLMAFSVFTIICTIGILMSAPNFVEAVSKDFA

Regarding `c1cc2c(cc1-c1nnc(N3CCN4CCC3C4)o1)OCO2` (stereo not shown) [Compound I, 4-(5-Benzo[1,3]dioxol-5-yl-[1,3,4]oxadiazol-2-yl)-1,4-diaza-bicyclo[3.2.1]octane fumaric acid salt], the pIC50 is greater than 7.00.
